In this test the target is Bile salt export pump (Homo sapiens, UniProt O95342). Type of test: ADME.

The source of these data is ChEMBL document CHEMBL4017441, “Mitigating the inhibition of human bile salt export pump by drugs: opportunities provided by physicochemical property modulation, in silico modeling, and structural modification” (Drug Metab Dispos, 2012).

Where a name gives a salt, the structure may show the parent alone.

With `NCC1OC(OC2C(CO)OC(OC3C(O)C(N)CC(N)C3OC3OC(CN)C(O)C(O)C3N)C2O)C(N)C(O)C1O` (stereo not drawn), the IC50 – broadly, the concentration needed to halve the response being measured – was greater than 1000 µM. The same measure for `Fc1ccc(C(c2ccc(F)cc2)N2CCN(C/C=C/c3ccccc3)CC2)cc1` [FLUNARIZINE]: less than 10 µM.

Consider `Clc1ccc2c(c1)C(N1CCNCC1)=Nc1ccccc1O2` [AMOXAPINE], for which the half-inhibitory concentration (IC50) worked out at 230 µM. The figure for IVERMECTIN is less than 10 µM; for `CC1=C(C/C=C(\C)CCCC(C)CCCC(C)CCCC(C)C)C(=O)c2ccccc2C1=O` (stereo not drawn) it is greater than 1000 µM. Regarding `COc1ccc(CC(N)C(=O)N[C@@H]2[C@@H](CO)OC(n3cnc4c(N(C)C)ncnc43)[C@@H]2O)cc1` (stereo partly drawn), the IC50 is greater than 787 µM. The figure for `CCN(CC)CCNc1ccc(CO)c2sc3ccccc3c(=O)c12` [HYCANTHONE] is 29.8 µM. As to `CCCc1c2nc(C(=O)O)cc(NC)c2cc2c(=O)cc(C(=O)O)oc12` [MINOCROMIL], the IC50 was greater than 1000 µM. Turning to `CCCn1c(=O)[nH]c(=O)c2[nH]cnc21` [ENPROFYLLINE], the IC50 was greater than 1000 µM. The figure for `CC(C)[C@H](O)C(=O)N[C@@H](C)C(=O)N[C@@H]1C(=O)N(C)CCc2ccccc21` is 472 µM; for `Cc1cc2c(cc(C(=O)O)n2Cc2ccc(Cl)c(Cl)c2)o1` it is 15.9 µM. For the compound `COC(=O)C1=C(C)NC(C)=C(C(=O)OC(C)C)[C@@H]1c1cccc2nonc12` [(R)-ISRADIPINE], the IC50 is less than 10 µM.

`C[C@H](NCc1ccc(OCc2ccccc2F)cc1)C(N)=O` [RALFINAMIDE]: the IC50 is 175 µM. For `CCCNCC(O)COc1ccccc1C(=O)CCc1ccccc1` (stereo not drawn) [PROPAFENONE], the IC50 turned out to be 53.7 µM. The same measure for `CCC1(c2ccc(N)cc2)CCC(=O)NC1=O` (stereo not drawn) [AMINOGLUTETHIMIDE]: greater than 1000 µM; for `Cc1onc(-c2c(Cl)cccc2Cl)c1C(=O)N[C@@H]1C(=O)N2[C@@H]1SC(C)(C)[C@@H]2C(=O)O` [DICLOXACILLIN]: less than 10 µM. `O=[N+]([O-])c1cc([As](=O)(O)O)ccc1O` [ROXARSONE]: the concentration for half-maximal inhibition (IC50) was greater than 1000 µM.

For `c1ccc2[nH]c(-c3nc4ccccc4[nH]3)nc2c1`, the IC50 worked out at 31.3 µM. The figure for `CCN1CCN(c2cc3c(cc2F)c(=O)c(C(=O)O)cn3C2CC2)CC1` [ENROFLOXACIN] is greater than 1000 µM; for `CCCc1c2nc(C(=O)O)cc(O)c2cc2c(=O)cc(C(=O)O)oc12` it is greater than 1000 µM; for `CCN(CC)CCNC(=O)c1ccc(NS(C)(=O)=O)cc1` [SEMATILIDE] it is greater than 1000 µM. Take `Cc1cc(NS(=O)(=O)c2ccc(N)cc2)no1` [SULFAMETHOXAZOLE]: the IC50 was greater than 1000 µM.

Regarding `CC(=O)NCCCCCCNC(C)=O` [HEXAMETHYLENEBISACETAMIDE], the IC50 is greater than 1000 µM. The figure for `N[C@H]1CCN(c2ccc3c(C(=O)NCC4CCCCC4)c(Cl)ccc3n2)C1` is 107 µM. The figure for `Cc1cc2c(s1)Nc1ccccc1N=C2N1CCN(C)CC1` [OLANZAPINE] is […]. As to `CC(=O)NC[C@H]1CN(c2ccc(-n3cnc(Br)c3)c(F)c2)C(=O)O1`, the IC50 was 349 µM. Consider `Cc1cc(O)cc(C)c1Cl` [CHLOROXYLENOL], for which the IC50 came out at 130 µM.

On to `CC1(C)COC(=O)C1O` (stereo not drawn), for which the IC50 was greater than 1000 µM. The figure for `CCN1CCC[C@H]1CNC(=O)c1c(OC)ccc(Br)c1OC` [REMOXIPRIDE] is less than 10 µM; for `COC(=O)C1=C(C)NC(C)=C(C(=O)OCCN(C)Cc2ccccc2)C1c1cccc([N+](=O)[O-])c1` (stereo not drawn) [NICARDIPINE] it is less than 10 µM. The same measure for `COc1ccc(-n2[nH]c(=O)c3[nH]c4cc(Cl)ccc4c(=O)c3c2=O)c(C)c1`: 490 µM; for `C1CCC(C(CC2CCCCN2)C2CCCCC2)CC1` (stereo not drawn) [PERHEXILINE]: 14.4 µM. Consider `CNCC(O)c1cccc(O)c1` (stereo not drawn), for which the concentration for half-maximal inhibition (IC50) was greater than 1000 µM.

As for `O=C(O)CCn1c2c(c3ccccc31)C[C@H](NS(=O)(=O)c1ccc(F)cc1)CC2` [RAMATROBAN], the IC50 was determined as 62.4 µM.

With `C[C@@](O)(CS(=O)(=O)c1ccc(F)cc1)C(=O)Nc1ccc(C#N)c(C(F)(F)F)c1` [(S)-BICALUTAMIDE], the IC50 is less than 10 µM. The same measure for `c1ccc2c(CC3=NCCN3)cccc2c1` [NAPHAZOLINE]: greater than 1000 µM. As for `CC(C(=O)O)c1ccc(-c2ccccc2)c(F)c1` (stereo not drawn) [FLURBIPROFEN], the IC50 worked out at 725 µM. As to `O=C(NO)C1(CS(=O)(=O)c2ccc(Oc3ccc(Cl)cc3)cc2)CCOCC1` [CTS-1027], the IC50 is 23.4 µM. With `CCN(CC)C(=O)c1ccc(C(=C2CCNCC2)c2ccccc2)cc1`, the IC50 turned out to be 106 µM. Turning to `C[N+](C)(C)CC(=O)O` [BETAINE], the IC50 is greater than 1000 µM. For the compound `O=CN(O)C(CCc1cccnc1)CS(=O)(=O)N1CCC(Oc2ccc(Cl)cn2)CC1` (stereo not drawn), the half-maximal inhibitory concentration (IC50) is less than 10 µM. The same measure for `CN(C)CCCN1c2ccccc2Sc2ccc(C(F)(F)F)cc21` [TRIFLUPROMAZINE]: 39 µM. The figure for `CCCCN(CCCC)CCCOC(=O)c1ccc(N)cc1` [BUTACAINE] is 488 µM; for `CCN(CC)CCOC(=O)C(c1ccccc1)c1ccccc1` [ADIPHENINE] it is 158 µM; for `O=c1[nH]cc(F)c(=O)[nH]1` [FLUOROURACIL] it is greater than 1000 µM. The figure for `CC(C)(C)NCC(O)c1ccccc1Cl` (stereo not drawn) [TULOBUTEROL] is greater than 1000 µM. On to `Cc1nc(C)c(C)nc1C` [LIGUSTRAZINE], for which the IC50 was greater than 1000 µM. On to `COc1ccc2c(c1)CC[C@@H]1[C@@H]2CC[C@@]2(C)[C@H]1CC[C@@]2(O)C#N`, for which the IC50 was less than 10 µM. Consider `CC[C@H]1OC(=O)[C@H](C)[C@H](O[C@H]2C[C@@](C)(OC)[C@@H](O)[C@H](C)O2)[C@@H](C)[C@@H](O[C@@H]2O[C@H](C)C[C@H](N(C)C)[C@H]2O)[C@@](C)(OC)C[C@@H](C)C(=O)[C@H](C)[C@H](O)[C@]1(C)O`, for which the IC50 was less than 12.9 µM. The same measure for `O=C(O)c1cc2c(F)c(O)ccc2n1Cc1ccc(Cl)c(Cl)c1`: 19.3 µM. The figure for `CCCCCCCC/C=C/CCCCCCCC(=O)OCC(COP(=O)(O)OCC[N+](C)(C)C)OC(=O)CCCCCCC/C=C/CCCCCCCC` (stereo not drawn) is less than 16 µM; for `CC(=O)NC[C@H]1CN(c2cc(F)c(C3=CCN(C(=O)CO)CC3)c(F)c2)C(=O)O1` it is greater than 1000 µM; for `CCCc1c2nc(C(=O)O)cc(Cl)c2cc2c(=O)cc(C(=O)O)oc12` it is greater than 892 µM.

For `OCCN1CCN(CCCN2c3ccccc3Sc3ccc(C(F)(F)F)cc32)CC1` [FLUPHENAZINE], the IC50 was 25.8 µM. The same measure for `O=CN(O)C(CCc1ccccn1)CS(=O)(=O)N1CCN(c2ccc(Cl)cn2)CC1` (stereo not drawn): less than 10 µM.

`CCCCCC(O)C1C(=O)OC(C)C(O)/C=C/C=C/C=C/C=C/C=C(/C)C(O)CC(O)CC(O)CC(O)CC(O)CC(O)CC1O` (stereo not drawn): the IC50 came to 164 µM.

In the case of `CC1=NS(=O)(=O)c2cc(Cl)ccc2N1` [DIAZOXIDE], the half-inhibitory concentration (IC50) was greater than 1000 µM. The same measure for `Cc1ccc(NC(=O)c2cccc(-c3ccco3)c2)cc1-n1cnc2ccc(N3CCN(C)CC3)cc2c1=O`: less than 10 µM. The same measure for `Cc1ccc(C(=O)N2CC3CNCC(C2)O3)cc1NC(=O)CC12CC3CC(CC(C3)C1)C2`: 59.5 µM; for `COC1C(OC(=O)/C=C/C=C/C=C/C=C/C(=O)O)CCC2(CO2)C1C1(C)OC1CC=C(C)C` (stereo not drawn): 25.6 µM. On to `CCCCOc1cc(C(=O)OCCN(CC)CC)ccc1N` [BENOXINATE], for which the IC50 is 309 µM. The same measure for `CCN(CC)CCNC(=O)c1c(C)[nH]c(/C=C2\C(=O)Nc3ccc(F)cc32)c1C` [SUNITINIB]: 45.8 µM; for `CCCc1c(OCCCOc2ccc3c(=O)cc(CCC(=O)O)oc3c2CCC)ccc(C(C)=O)c1O`: less than 10 µM.

As for `C[C@]12C=CC(=O)C=C1CC[C@H]1[C@@H]3C[C@@H](O)[C@](O)(C(=O)CO)[C@@]3(C)C[C@H](O)[C@@]12F` [TRIAMCINOLONE], the half-inhibitory concentration (IC50) was 236 µM. The same measure for `C=CC1CN2CCC1CC2C(O)c1ccnc2ccccc12` (stereo not drawn): greater than 1000 µM; for `COc1ccc2c(c1OC)C(=O)OC2C1c2c(cc3c(c2OC)OCO3)CCN1C` (stereo not drawn): 23.9 µM. Take `COC(=O)N/N=C/c1c[n+]([O-])c2ccccc2[n+]1[O-]` [CARBADOX]: the IC50 was greater than 940 µM. Take `COc1ccc2cc([C@H](C)C(=O)O)ccc2c1` [NAPROXEN]: the IC50 is greater than 1000 µM. Take `CCOCn1cnc2c1c(=O)n(CCCCC(C)(C)O)c(=O)n2C` [TORBAFYLLINE]: the IC50 came to 305 µM.

On to `CC[C@@H](CO)NC(=O)[C@@H]1C=C2c3cccc4c3c(cn4C)C[C@H]2N(C)C1` [METHYSERGIDE], for which the IC50 was 33.1 µM.

For the compound `C[C@@H]1O[C@@H](O[C@H]2C[C@@H](O)[C@]3(CO)[C@H]4[C@H](O)C[C@]5(C)[C@@H](C6=CC(=O)OC6)CC[C@]5(O)[C@@H]4CC[C@]3(O)C2)[C@H](O)[C@H](O)[C@H]1O` [OUABAIN], the IC50 was greater than 1000 µM. The figure for `CCN(Cc1ccncc1)C(=O)C(CO)c1ccccc1` (stereo not drawn) [TROPICAMIDE] is 151 µM; for `CC[C@H]1OC(=O)[C@H](C)[C@H](O[C@H]2C[C@@](C)(OC)[C@@H](O)[C@H](C)O2)[C@H](C)[C@@H](O[C@@H]2O[C@H](C)C[C@H](N(C)C)[C@H]2O)[C@](C)(O)C[C@@H](C)CN(C)[C@H](C)[C@H](O)[C@]1(C)O` it is greater than 1000 µM; for `CC(CNC1CCCCC1)OC(=O)c1ccccc1` (stereo not drawn) [HEXYLCAINE HYDROCHLORIDE] it is 506 µM. The figure for `COC(=O)C1=C(C)NC(C)=C(C(=O)OC)C1c1ccccc1[N+](=O)[O-]` [NIFEDIPINE] is 18.7 µM; for `CC(C)(Sc1cc(C(C)(C)C)c(O)c(C(C)(C)C)c1)Sc1cc(C(C)(C)C)c(O)c(C(C)(C)C)c1` [PROBUCOL] it is greater than 1000 µM; for `Cc1ccc2c(c1)c(-c1ccnc3c(C(F)(F)F)cccc13)c(C)n2CC(=O)O` it is less than 10 µM. The same measure for `CN(C)C(=O)c1ccc(S(=O)(=O)c2ccc(NC(=O)[C@@](C)(O)C(F)(F)F)c(Cl)c2)cc1`: less than 12.8 µM; for `CCCSc1nc(N)c2ncn([C@@H]3O[C@H](CO)[C@@H](O)[C@H]3O)c2n1`: greater than 1000 µM. Regarding `CN(Cc1cc(Br)cc(Br)c1N)C1CCCCC1` [BROMHEXINE], the concentration for half-maximal inhibition (IC50) came out at 20.3 µM. The same measure for `CN(C)CCOC(C)(c1ccccc1)c1ccccn1` (stereo not drawn) [DOXYLAMINE]: greater than 1000 µM; for `O=C(C1CCCCC1)N1CC(=O)N2CCc3ccccc3C2C1` (stereo not drawn) [PRAZIQUANTEL]: 60.3 µM. As to `C[C@@](Cc1ccc(O)c(O)c1)(NN)C(=O)O` [CARBIDOPA ANHYDROUS], the IC50 was greater than 1000 µM.
